Biological target: HPK1 (Homo sapiens (Human), UniProt Q92918)
Assay: HPK1 Inhibition Assay (ADP-Glo kinase assay)
Assay type: biochemical
Details: ATP 10 μM
Procedure, shortened: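 ADP-Glo luminescence read-out after 1 h room-temperature kinase reaction with 10 μM ATP and 0.1 μg/ml MBP. Recombinant human HPK1 at 7.5 ng/μl; buffer 40 mM Tris pH 7.5, 20 mM MgCl2. Compounds serially diluted 5-fold over 10 points from 10 mM DMSO stock.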

Chain of HPK1 (Q92918 1-346 limits assumed): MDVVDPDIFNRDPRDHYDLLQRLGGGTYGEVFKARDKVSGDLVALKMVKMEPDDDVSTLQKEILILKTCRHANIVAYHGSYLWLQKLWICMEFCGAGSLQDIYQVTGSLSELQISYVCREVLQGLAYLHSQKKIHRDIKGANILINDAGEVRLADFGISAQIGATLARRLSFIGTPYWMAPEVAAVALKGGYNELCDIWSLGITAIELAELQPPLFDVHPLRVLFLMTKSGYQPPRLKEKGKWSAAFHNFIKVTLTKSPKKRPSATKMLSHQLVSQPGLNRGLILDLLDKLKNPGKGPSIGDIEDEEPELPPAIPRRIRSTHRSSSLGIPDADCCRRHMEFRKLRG

SMILES	IC50 [nM]
CC(C)c1nc2c(N3CC[C@@H](NCC(C)(C)O)C3)c(NC(=O)c3ccc(=O)n(-c4c(F)cccc4F)n3)ccc2n1C [Example 129, (R)-1-(2,6-difluorophenyl)-N-(4-(3-((2-hydroxy-2-methylpropyl)amino)pyrrolidin-1-yl)-2-isopropyl-1-methyl-1H-benzo[d]imidazol-5-yl)-6-oxo-1,6-dihydropyridazine-3-carboxamide]	< 100
CC(C)c1nc2c(N3CC[C@@H](NCCO)C3)c(NC(=O)c3ccc(=O)n(-c4c(F)cccc4F)n3)ccc2n1C [Example 130, (R)-1-(2,6-difluorophenyl)-N-(4-(3-((2-hydroxyethyl)amino)pyrrolidin-1-yl)-2-isopropyl-1-methyl-1H-benzo[d]imidazol-5-yl)-6-oxo-1,6-dihydropyridazine-3-carboxamide]	< 100
CC(C)c1nc2c(N3CC[C@@H](NC(=O)CN)C3)c(NC(=O)c3ccc(=O)n(-c4c(F)cccc4F)n3)ccc2n1C [Example 131, (R)-N-(4-(3-(2-aminoacetamido)pyrrolidin-1-yl)-2-isopropyl-1-methyl-1H-benzo[d]imidazol-5-yl)-1-(2,6-difluorophenyl)-6-oxo-1,6-dihydropyridazine-3-carboxamide]	< 100
CC(C)c1nc2c(N3CC[C@H](N)C3)c(NC(=O)c3ccc(=O)n(-c4c(F)cccc4F)n3)ccc2n1C [Example 132, (S)-N-(4-(3-aminopyrrolidin-1-yl)-2-isopropyl-1-methyl-1H-benzo[d]imidazol-5-yl)-1-(2,6-difluorophenyl)-6-oxo-1,6-dihydropyridazine-3-carboxamide]	< 100
CC(C)c1nc2c(N3CCC(N)CC3)c(NC(=O)c3ccc(=O)n(-c4c(F)cccc4F)n3)ccc2n1C [Example 133, N-(4-(4-aminopiperidin-1-yl)-2-isopropyl-1-methyl-1H-benzo[d]imidazol-5-yl)-1-(2,6-difluorophenyl)-6-oxo-1,6-dihydropyridazine-3-carboxamide]	< 100
CC(C)c1nc2c(N3CCC[C@H]3CN)c(NC(=O)c3ccc(=O)n(-c4c(F)cccc4F)n3)ccc2n1C [Example 134, (S)-N-(4-(2-(aminomethyl)pyrrolidin-1-yl)-2-isopropyl-1-methyl-1H-benzo[d]imidazol-5-yl)-1-(2,6-difluorophenyl)-6-oxo-1,6-dihydropyridazine-3-carboxamide]	< 100
CC(C)c1nc2c(N3CCC4(CCNC4)C3)c(NC(=O)c3ccc(=O)n(-c4c(F)cccc4F)n3)ccc2n1C (stereo not shown) [Example 136, 1-(2,6-difluorophenyl)-N-(2-isopropyl-1-methyl-4-(2,7-diazaspiro[4.4]nonan-2-yl)-1H-benzo[d]imidazol-5-yl)-6-oxo-1,6-dihydropyridazine-3-carboxamide]	< 100
CC(C)c1nc2c(N3C[C@H]4CNC[C@H]4C3)c(NC(=O)c3ccc(=O)n(-c4c(F)cccc4F)n3)ccc2n1C [Example 137, 1-(2,6-difluorophenyl)-N-(4-((3aR,6aS)-hexahydropyrrolo[3,4-c]pyrrol-2(1H)-yl)-2-isopropyl-1-methyl-1H-benzo[d]imidazol-5-yl)-6-oxo-1,6-dihydropyridazine-3-carboxamide]	< 100
CC(C)c1nc2c(N3CC[C@@](C)(O)C3)c(NC(=O)c3ccc(=O)n(-c4c(F)cccc4F)n3)ccc2n1C [Example 140, (R)-1-(2,6-difluorophenyl)-N-(4-(3-hydroxy-3-methylpyrrolidin-1-yl)-2-isopropyl-1-methyl-1H-benzo[d]imidazol-5-yl)-6-oxo-1,6-dihydropyridazine-3-carboxamide]	< 100
CC(C)c1nc2c(N3CC(F)(F)C[C@H]3CN)c(NC(=O)c3ccc(=O)n(-c4c(F)cccc4F)n3)ccc2n1C [Example 141, (S)-N-(4-(2-(aminomethyl)-4,4-difluoropyrrolidin-1-yl)-2-isopropyl-1-methyl-1H-benzo[d]imidazol-5-yl)-1-(2,6-difluorophenyl)-6-oxo-1,6-dihydropyridazine-3-carboxamide]	< 100
CC(C)c1nc2c(N3CC(N)C(O)C3)c(NC(=O)c3ccc(=O)n(-c4c(F)cccc4F)n3)ccc2n1C (stereo not shown) [Example 142, N-(4-(3-amino-4-hydroxypyrrolidin-1-yl)-2-isopropyl-1-methyl-1H-benzo[d]imidazol-5-yl)-1-(2,6-difluorophenyl)-6-oxo-1,6-dihydropyridazine-3-carboxamide]	< 100
CC(C)c1nc2c(N3CC[C@@H](N)C3)c(NC(=O)c3ccc(=O)n(-c4c(F)cccc4F)n3)cc(F)c2n1C [Example 143, (R)—N-(4-(3-aminopyrrolidin-1-yl)-7-fluoro-2-isopropyl-1-methyl-1H-benzo[d]imidazol-5-yl)-1-(2,6-difluorophenyl)-6-oxo-1,6-dihydropyridazine-3-carboxamide]	< 100
CC(C)c1nc2c(N3CC(F)(F)C[C@H]3CN)c(NC(=O)c3ccc(=O)n(-c4c(F)cccc4F)n3)cc(F)c2n1C [Example 144, (S)-N-(4-(2-(aminomethyl)-4,4-difluoropyrrolidin-1-yl)-7-fluoro-2-isopropyl-1-methyl-1H-benzo[d]imidazol-5-yl)-1-(2,6-difluorophenyl)-6-oxo-1,6-dihydropyridazine-3-carboxamide]	< 100
CC(C)c1nc2c(N3C[C@@H]4[C@H](N)[C@@H]4C3)c(NC(=O)c3ccc(=O)n(-c4c(F)cccc4F)n3)cc(F)c2n1C [Example 145, N-(4-((1R,5S,6r)-6-amino-3-azabicyclo[3.1.0]hexane-3-yl)-7-fluoro-2-isopropyl-1-methyl-1H-benzo[d]imidazol-5-yl)-1-(2,6-difluorophenyl)-6-oxo-1,6-dihydropyridazine-3-carboxamide]	< 100
Cn1c(C2(C(F)(F)F)CC2)nc2c(N3CC[C@@H](N)C3)c(NC(=O)c3ccc(=O)n(-c4c(F)cccc4F)n3)ccc21 [Example 146, (R)—N-(4-(3-aminopyrrolidin-1-yl)-1-methyl-2-(1-(trifluoromethyl)cyclopropyl)-1H-benzo[d]imidazol-5-yl)-1-(2,6-difluorophenyl)-6-oxo-1,6-dihydropyridazine-3-carboxamide]	< 100
Cn1c(C2(C(F)(F)F)CC2)nc2c(N3C[C@H](N)C(C)(C)C3)c(NC(=O)c3ccc(=O)n(-c4c(F)cccc4F)n3)ccc21 [Example 147, (R)-N-(4-(4-amino-3,3-dimethylpyrrolidin-1-yl)-1-methyl-2-(1-(trifluoromethyl)cyclopropyl)-1H-benzo[d]imidazol-5-yl)-1-(2,6-difluorophenyl)-6-oxo-1,6-dihydropyridazine-3-carboxamide]	< 100
C[C@@H]1CN(c2c(NC(=O)c3ccc(=O)n(-c4c(F)cccc4F)n3)ccc3c2nc(C2(C(F)(F)F)CC2)n3C)C[C@@H]1N [Example 148, N-(4-((3R,4R)-3-amino-4-methylpyrrolidin-1-yl)-1-methyl-2-(1-(trifluoromethyl)cyclopropyl)-1H-benzo[d]imidazol-5-yl)-1-(2,6-difluorophenyl)-6-oxo-1,6-dihydropyridazine-3-carboxamide]	< 100
Cn1c(C2(C(F)(F)F)CC2)nc2c(N3C[C@H](N)C4(CC4)C3)c(NC(=O)c3ccc(=O)n(-c4c(F)cccc4F)n3)ccc21 [Example 149, (R)-N-(4-(7-amino-5-azaspiro[2.4]heptan-5-yl)-1-methyl-2-(1-(trifluoromethyl)cyclopropyl)-1H-benzo[d]imidazol-5-yl)-1-(2,6-difluorophenyl)-6-oxo-1,6-dihydropyridazine-3-carboxamide]	< 100
Cc1nc2c(N3C[C@H](N)C(C)(C)C3)c(NC(=O)c3ccc(=O)n(-c4c(F)cccc4F)n3)ccc2n1[C@H]1CCOC1 [Example 150, N-(4-((R)-4-amino-3,3-dimethylpyrrolidin-1-yl)-2-methyl-1-((S)-tetrahydrofuran-3-yl)-1H-benzo[d]imidazol-5-yl)-1-(2,6-difluorophenyl)-6-oxo-1,6-dihydropyridazine-3-carboxamide]	< 100
Cc1nc2c(N3C[C@H](N)C4(CC4)C3)c(NC(=O)c3ccc(=O)n(-c4c(F)cccc4F)n3)ccc2n1C1CCOCC1 [Example 151, 1-(2,6-difluorophenyl)-N-(4-[(7R)-7-amino-5-azaspiro[2.4]heptan-5-yl]-2-methyl-1-(3,4,5,6-tetrahydro-2H-pyran-4-yl)benzo[d]imidazol-5-yl)-6-oxo-1,2-diazine-3-carboxamide]	< 100
Cc1nc2c(N3C[C@H](N)C4(CC4)C3)c(NC(=O)c3ccc(=O)n(-c4c(F)cccc4F)n3)ccc2n1[C@H]1CCOC1 [Example 152, N-(4-((R)-7-amino-5-azaspiro[2.4]heptan-5-yl)-2-methyl-1-((S)-tetrahydrofuran-3-yl)-1H-benzo[d]imidazol-5-yl)-1-(2,6-difluorophenyl)-6-oxo-1,6-dihydropyridazine-3-carboxamide]	< 100
C[C@@H]1CN(c2c(NC(=O)c3ccc(=O)n(-c4c(F)cccc4F)n3)ccc3c2ncn3C2CCOCC2)C[C@@H]1N [Example 153, N-(4-((3R,4R)-3-amino-4-methylpyrrolidin-1-yl)-1-(tetrahydro-2H-pyran-4-yl)-1H-benzo[d]imidazol-5-yl)-1-(2,6-difluorophenyl)-6-oxo-1,6-dihydropyridazine-3-carboxamide]	< 100
CC(C)n1cnc2c(N3C[C@@H](C)[C@@H](N)C3)c(NC(=O)c3ccc(=O)n(-c4c(F)cccc4F)n3)ccc21 [Example 154, N-(4-((3R,4R)-3-amino-4-methylpyrrolidin-1-yl)-1-isopropyl-1H-benzo[d]imidazol-5-yl)-1-(2,6-difluorophenyl)-6-oxo-1,6-dihydropyridazine-3-carboxamide]	< 100
Cn1c(C(C)(C)F)nc2c(N3CC[C@@H](N)C3)c(NC(=O)c3ccc(=O)n(-c4c(F)cccc4F)n3)ccc21 [Example 155]	< 100
Cn1c(CC(F)(F)F)nc2c(N3CC[C@@H](N)C3)c(NC(=O)c3ccc(=O)n(-c4c(F)cccc4F)n3)ccc21 [Example 156, (R)-N-(4-(3-aminopyrrolidin-1-yl)-1-methyl-2-(2,2,2-trifluoroethyl)-1H-benzo[d]imidazol-5-yl)-1-(2,6-difluorophenyl)-6-oxo-1,6-dihydropyridazine-3-carboxamide]	< 100

— patent publication US20250122174A1 (Shenzhen Yuanli Shenwan Innovative Medicine Co., Ltd., priority 2022, published 2025)
